# Assay results reported in US6667325B1, “Substituted pyrazole compounds” (Teikoku Hormone Mfg. Co., Ltd., priority 1999, dated 2003).
row,melting point [°C],Compound
1,62 to 65,"Cn1nc(-c2ccc(F)cc2)c(-c2ccncc2)c1C(O)CCc1ccccc1 (stereo not drawn) [Example 15, 3-(4-Fluorophenyl)-5-(1-hydroxy-3-phenylpropyl)-1-methyl-4-(4-pyridyl)pyrazole]"
2,187 to 188,"Fc1ccc(-c2n[nH]c(C=CCc3cccnc3)c2-c2ccncc2)cc1 [Example 26, 3(5)-(4-Fluorophenyl)-4-(4-pyridyl)-5(3)-[3-(3-pyridyl)-1-propenyl]pyrazole]"
3,215.5 to 217.5,"CC(=Cc1[nH]nc(-c2ccc(F)cc2)c1-c1ccncc1)Cc1cccnc1 [Example 27, 3(5)-(4-Fluorophenyl)-5(3)-[2-methyl-3-(3-pyridyl)-1-propenyl]-4-(4-pyridyl)pyrazole]"
4,136 to 137,"Cn1nc(-c2ccc(F)cc2)c(-c2ccncc2)c1C=CCc1ccccc1 [Example 29, 3-(4-Fluorophenyl)-1-methyl-5-(3-phenyl-1-propenyl)-4-(4-pyridyl)pyrazole]"
5,155.5 to 156.5,"Fc1ccc(-c2n[nH]c(CCCc3ccccc3)c2-c2ccncc2)cc1 [Example 31, 3(5)-(4-Fluorophenyl)-5(3)-(3-phenylpropyl)-4-(4-pyridyl)pyrazole]"
6,143 to 144.5,"Fc1ccc(-c2n[nH]c(CCCc3ccccn3)c2-c2ccncc2)cc1 [Example 40, 3(5)-(4-Fluorophenyl)-4-(4-pyridyl)-5(3)-[3-(2-pyridyl)propyl]pyrazole]"
7,207 to 210,"Fc1ccc(-c2n[nH]c(CCCc3cccnc3)c2-c2ccncc2)cc1 [Example 43, 3(5)-(4-Fluorophenyl)-4-(4-pyridyl)-5(3)-[3-(3-pyridyl)propyl]pyrazole]"
8,144.5 to 146.5,"Fc1ccc(-c2n[nH]c(CCCn3cccn3)c2-c2ccncc2)cc1 [Example 55, 3(5)-(4-Fluorophenyl)-5(3)-[3-(1-pyrazolyl)propyl]-4-(4-pyridyl)pyrazole]"
9,129.1 to 131.8,"Cn1nc(-c2ccc(F)cc2)c(-c2ccncc2)c1CCCc1ccc([N+](=O)[O-])cc1 [Example 56, 3-(4-Fluorophenyl)-1-methyl-5-[3-(4-nitrophenyl)propyl]-4-(4-pyridyl)pyrazole]"
10,80.5 to 81.1,"Cn1nc(-c2ccc(F)cc2)c(-c2ccncc2)c1CCCc1ccc(N)cc1 [Example 57, 5-[3-(4-Aminophenyl)propyl]-3-(4-fluorophenyl)-1-methyl-4-(4-pyridyl)pyrazole]"
11,83 to 87,"Cn1nc(-c2ccc(F)cc2)c(-c2ccncc2)c1CCCc1ccccc1 [Example 58, 3-(4-Fluorophenyl)-1-methyl-5-(3-phenylpropyl)-4-(4-pyridyl)pyrazole]"
12,162.3 to 164.8,"COc1ccc(CNC(=O)c2c(-c3ccncc3)c(-c3ccc(F)cc3)nn2C)cc1 [Example 69, 3-(4-Fluorophenyl)-5-(4-methoxybenzylaminocarbonyl)-1-methyl-4-(4-pyridyl)pyrazole]"
13,225.8 to 228.4,"COc1ccc(CN(C)C(=O)c2[nH]nc(-c3ccc(F)cc3)c2-c2ccncc2)cc1 [Example 73, 3(5)-(4-Fluorophenyl)-5(3)-(N-methyl-4-methoxybenzylaminocarbonyl)-4-(4-pyridyl)pyrazole]"
14,202.9 to 204.6,"CCN(Cc1ccccc1)C(=O)c1[nH]nc(-c2ccc(F)cc2)c1-c1ccncc1 [Example 74, 5(3)-(N-Ethylbenzylaminocarbonyl)-3(5)-(4-fluorophenyl)-4-(4-pyridyl)pyrazole]"
15,148 to 149.3,"CCn1nc(-c2ccc(F)cc2)c(-c2ccncc2)c1C(=O)N(C)Cc1ccccc1 [Example 75, 1-Ethyl-5-(N-methylbenzylaminocarbonyl)-3-(4-fluorophenyl)-4-(4-pyridyl)pyrazole]"
16,114.9 to 116.7,"CCN(Cc1ccccc1)C(=O)c1c(-c2ccncc2)c(-c2ccc(F)cc2)nn1CC [Example 76, 1-Ethyl-5-(N-ethylbenzylaminocarbonyl)-3-(4-fluorophenyl)-4-(4-pyridyl)pyrazole]"
17,149.1 to 150.2,"CN(Cc1ccccc1)C(=O)c1c(-c2ccncc2)c(-c2ccc(F)cc2)nn1C [Example 77, 3-(4-Fluorophenyl)-1-methyl-5-(N-methylbenzylaminocarbonyl)-4-(4-pyridyl)pyrazole]"
18,150.1 to 152.6,"COc1ccc(CN(C)C(=O)c2c(-c3ccncc3)c(-c3ccc(F)cc3)nn2C)cc1 [Example 79, 3-(4-Fluorophenyl)-1-methyl-5-(N-methyl-4-methoxybenzylaminocarbonyl)-4-(4-pyridyl)pyrazole]"
19,144.4 to 146.8,"CCn1nc(-c2ccc(F)cc2)c(-c2ccncc2)c1C(=O)N(C)Cc1ccccn1 [Example 80, 1-Ethyl-3-(4-fluorophenyl)-5-(N-methyl-2-pyridylmethylaminocarbonyl)-4-(4-pyridyl)pyrazole]"
20,135.9 to 138.1,"CN(Cc1ccccc1)C(=O)c1c(-c2ccncc2)c(-c2ccc(F)cc2)nn1CCO [Example 81, 3-(4-Fluorophenyl)-1-(2-hydroxyethyl)-5-(N-methylbenzylaminocarbonyl)-4-(4-pyridyl)pyrazole]"
21,177.6 to 180.2,"Fc1ccc(-c2n[nH]c(COCc3ccccc3)c2-c2ccncc2)cc1 [Example 82, 5(3)-(Benzyloxymethyl)-3(5)-(4-fluorophenyl)-4-(4-pyridyl)pyrazole]"
22,169.2 to 173.5,"CC(OCc1ccccc1)c1[nH]nc(-c2ccc(F)cc2)c1-c1ccncc1 (stereo not drawn) [Example 83, 5(3)-[1-(Benzyloxy)ethyl]-3(5)-(4-fluorophenyl)-4-(4-pyridyl)pyrazole]"
23,187.7 to 193.5,"O=C(Cc1ccccc1)Cc1[nH]nc(-c2ccc(F)cc2)c1-c1ccncc1 [Example 86, 3(5)-(4-Fluorophenyl)-5(3)-(2-oxo-3-phenylpropyl)-4-(4-pyridyl)pyrazole]"
24,148.1 to 151,"Cn1nc(-c2ccc(F)cc2)c(-c2ccncc2)c1CC(=O)Cc1ccccc1 [Example 87, 3-(4-Fluorophenyl)-1-methyl-5-(2-oxo-3-phenylpropyl)-4-(4-pyridyl)pyrazole]"
